# Assay results taken from patent US9776990B2, “Isoindolone derivatives” (AbbVie Inc., priority 2012, dated 2017).
# Marks after values point to notes of the source that are not given here.
# Legend:
# BRD4 (BDI_K57-E168) = BRD4 (BDI_K57-E168) (Homo sapiens (Human), UniProt O60885); experiment: TR-FRET bromodomain binding assay, BRD4 first bromodomain; conditions: His-tagged BD1, 100 nM Alexa647 probe
# Procedure, shortened: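 His-tagged BRD4 BD1 or BD2 (8 nM) with Eu-anti-His antibody (1 nM) and Alexa647-labelled BET-inhibitor probe (100 nM BDI, 30 nM BDII); 50 μM−0.85 nM compound, 2% DMSO, phosphate buffer pH 6.0, 1 h at room temperature. TR-FRET IC50 by 4-parameter fit, converted to Ki using probe Kd.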
# SKM1 = experiment: Proliferation panel assay, SKM1; assay type: cell-based; conditions: Homo sapiens, SKM-1, 120 h; AML, SKM1, 5 days; read-out: Cellular Proliferation EC50
# Experimental: (§1) The impact of compounds of the Examples on cancer cell proliferation was determined using the breast cancer cell line MX-1 (ATCC) in a 3-day proliferation assay. MX-1 cells were maintained in RPMI supplemented with 10% FBS at 37 C.° and an atmosphere of 5% CO2. For compound testing, MX-1 cells were plated in 96-well black bottom plates at a density of 5000 cells/well in 90 μl of culture media and incubated at 37° overnight to allow cell adhesion and spreading. Compound dilution series were prepared in DMSO via a 3-fold serial dilution from 3 mM to 0.1 μM. […]
# (§2) Luminescence readings from the Cell Titer Glo assay were normalized to the DMSO treated cells and analyzed using the GraphPad Prism software with sigmoidal curve fitting to obtain EC50s. The minimum significant ratio (MSR) was determined to evaluate assay reproducibility (Eastwood et al., (2006) J Biomol Screen, 11: 253-261). The overall MSR was determined to be 2.1 and a moving MSR (last six run MSR overtime) has been <2.
# (§3) The compound of Example 40 was tested for its impact on proliferation of a panel of cancer cell line types (with specific cell lines tested) as set out in (Table 2). […] Cell proliferation data were analyzed as described above in the MX-1 proliferation assay to obtain the EC50 for the compounds reported in Table 2.
# FaDu = experiment: Proliferation panel assay, FaDu; assay type: cell-based; conditions: Homo sapiens, 120 h, Head & Neck, 5 days, read-out: Cellular Proliferation EC50
# Experimental: as §1, §2, §3
# [1] = test system: Ramos human B cell lymphoma cancer xenograft; experiment: Xenograft tumor growth inhibition assay, Ramos; assay type: in vivo, mice; conditions: 100 mg/kg/day PO
# Experimental: The effect of the compound of Example 40 to inhibit the growth of Ramos, OPM-2, MX-1, MV4-11, and HT1080 xenograft tumors was evaluated. Briefly, 0.5×10^6 human cancer cells (HT1080), 1×10^6 human cancer cells (Ramos), 5×10^6 human cancer cells (OPM-2, MV4-11) or 1:10 tumor brie (MX-1) (in S-MEM (MEM, Suspension, no Calcium, no Glutamine)) (Life Technologies Corporation) were inoculated subcutaneously into the right hind flank of female SCID or SCID-beige (MV4-11, HT1080) mice (Charles Rivers Labs) on study day 0. Compound was formulated in 2% EtOH, 5% Tween-80, 20% PEG-400, 73% HPMC (Ramos, OPM-2 and MX-1) or 5% DMSO, 5% EtOH, 30% PEG400, 60% Phosal 53 (MV4-11, HT1080). Administration of compound was initiated at the time of size match on day 8 (HT1080), day 17 (MX-1), or day 18 (Ramos, MV4-11, OPM-2). The tumors were measured by a pair of calipers twice a week starting at the time of size match and tumor volumes were calculated according to the formula V=L×W^2/2 (V: volume, mm^3; L: length, mm. W: width, m) Tumor volume was measured for the duration of the experiment until the mean tumor volume in each group reached an endpoint of >1000 mm^3.
compound,measurement,setting,value
"Cc1[nH]c(-c2cc(NS(C)(=O)=O)ccc2Oc2ccccc2)c2c1C(=O)CCC2 [Example 40, N-[3-(3-methyl-4-oxo-4,5,6,7-tetrahydro-2H-isoindol-1-yl)-4-phenoxyphenyl]methanesulfonamide]",Ki,BRD4 (BDI_K57-E168),0.015 µM
same,EC50,SKM1,0.039 µM
same,EC50,FaDu,0.18 µM
same,% TGI (tumor growth inhibition),"[1]; BID (5on 3off) x 2, based on day 31",35*** %
same,% TGD (tumor growth delay),"[1]; BID (5on 3off) x 2, endpoint 1000 mm^3",40** %
same,% TGI (tumor growth inhibition),"[1]; QDx14, based on day 31",30* %
same,% TGD (tumor growth delay),"[1]; QDx14, endpoint 1000 mm^3",40* %
